Source: the supplement of paper PMC11061612

Tests used:
Experiment in all cases: combination Emax (second highest fraction inhibited in the dose matrix, 72 h); higher = more inhibition; extreme values may be limits of the assay
[1] = test system: NCI-H835 (Other Solid Carcinomas)
How it was run: (§1)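 Bliss excess equals the observed combination effect minus the expected value EA + EB − EA·EB, where EA and EB are the effects of each agent alone. Combination Emax is the second-highest inhibition within the matrix. Inhibition was scaled from CellTiter-Glo 2.0 luminescence, with 0 set by vehicle wells and 1 by blank wells, after 72 hours of two-drug dosing of cells plated in 1536-well plates.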

[2] = test system: C2BBe1 (Colorectal Carcinoma)
How it was run: as §1

[3] = test system: NCI-H1975 (Lung Adenocarcinoma)
How it was run: as §1

[4] = test system: NCI-H2170 (Squamous Cell Lung Carcinoma)
How it was run: as §1

[5] = test system: KNS-62 (Squamous Cell Lung Carcinoma)
How it was run: as §1

[6] = test system: C32 (Melanoma)
How it was run: as §1

[7] = test system: TK (B-Cell Non-Hodgkin's Lymphoma)
How it was run: as §1

[8] = test system: OCI-M1 (Acute Myeloid Leukemia)
How it was run: as §1

[9] = test system: NCI-H1648 (Lung Adenocarcinoma)
How it was run: as §1

[10] = test system: SK-N-DZ (Neuroblastoma)
How it was run: as §1

[11] = test system: IGROV-1 (Ovarian Carcinoma)
How it was run: as §1

[12] = test system: SW1463 (Colorectal Carcinoma)
How it was run: as §1

[13] = test system: A375 (Melanoma)
How it was run: as §1

[14] = test system: JJN-3 (Plasma Cell Myeloma)
How it was run: as §1

[15] = test system: SCC90 (Head and Neck Carcinoma)
How it was run: as §1

[16] = test system: MRK-nu-1 (Breast Carcinoma)
How it was run: as §1

[17] = test system: NCI-H1048 (Small Cell Lung Carcinoma)
How it was run: as §1

[18] = test system: SBC-5 (Small Cell Lung Carcinoma)
How it was run: as §1

[19] = test system: TOV-21G (Ovarian Carcinoma)
How it was run: as §1

[20] = test system: L-363 (Plasma Cell Myeloma)
How it was run: as §1

COc1cc2c(cc1OCCCCCOc1cc3c(cc1OC)C(=O)N1C=C(C)C[C@H]1C=N3)N=C[C@@H]1CC(C)=CN1C2=O [SG3199] + O=C(c1cc(Cc2n[nH]c(=O)c3ccccc23)ccc1F)N1CCN(C(=O)C2CC2)CC1 [Olaparib] (first compound max 0.001 µM, 7x7, partner max 10 µM)
combination Emax [1]: 0.169 | combination Emax [2]: 0.0966 | combination Emax [3]: 0.172 | combination Emax [4]: 0.228 | combination Emax [5]: 0.0885 | combination Emax [6]: 0.0494 | combination Emax [7]: 0.184 | combination Emax [8]: 0.249 | combination Emax [9]: 0.129 | combination Emax [10]: 0.358 | combination Emax [11]: 0.358 | combination Emax [12]: 0.0306 | combination Emax [13]: 0.209 | combination Emax [14]: 0.254 | combination Emax [15]: 0.173 | combination Emax [16]: 0.223 | combination Emax [17]: 0.387 | combination Emax [18]: 0.0814 | combination Emax [19]: 0.195 | combination Emax [20]: 0.0669

C[C@@H](c1ccc2nccn2c1)n1nnc2ncc(-c3cnn(C)c3)nc21 [Savolitinib] + Cc1c2c(nn1C)CSCc1cc(n(C)n1)CSc1cc(c3ccccc3c1)OCCCc1c(C(=O)O)n(C)c3c-2c(Cl)ccc13 [AZD5991] (first compound max 1 µM, 7x7, partner max 1 µM)
combination Emax [1]: 0.177 | combination Emax [2]: 0.134 | combination Emax [3]: 0.146 | combination Emax [4]: 0.211 | combination Emax [5]: 0.141 | combination Emax [6]: 0.184 | combination Emax [7]: 0.129 | combination Emax [8]: 0.186 | combination Emax [9]: 0.453 | combination Emax [10]: 0.255 | combination Emax [11]: 0.157 | combination Emax [12]: 0.255 | combination Emax [13]: 0.182 | combination Emax [14]: 0.992 | combination Emax [15]: 0.454 | combination Emax [16]: 1 | combination Emax [17]: 0.196 | combination Emax [18]: 0.538 | combination Emax [19]: 0.174 | combination Emax [20]: 0.992

Cc1nc(Nc2ncc(C(=O)Nc3c(C)cccc3Cl)s2)cc(N2CCN(CCO)CC2)n1 [Dasatinib] + CC(=O)Nc1cccc(-n2c(=O)n(C3CC3)c(=O)c3c(Nc4ccc(I)cc4F)n(C)c(=O)c(C)c32)c1 [Trametinib] (first compound max 2 µM, 7x7, partner max 1 µM)
combination Emax [1]: 0 | combination Emax [2]: 0.692 | combination Emax [3]: 0.662 | combination Emax [4]: 0.537 | combination Emax [5]: 0.564 | combination Emax [6]: 0.984 | combination Emax [7]: 0.145 | combination Emax [8]: 0.884 | combination Emax [9]: 0.876 | combination Emax [10]: 0.192 | combination Emax [11]: 0.956 | combination Emax [12]: 0.786 | combination Emax [13]: 0.794 | combination Emax [14]: 0.446 | combination Emax [15]: 0.846 | combination Emax [16]: 0.254 | combination Emax [17]: 0.144 | combination Emax [18]: 0.409 | combination Emax [19]: 0.8 | combination Emax [20]: 0.146

C[C@@H](c1ccc2nccn2c1)n1nnc2ncc(-c3cnn(C)c3)nc21 [Savolitinib] + CC1(C)CCC(CN2CCN(c3ccc(C(=O)NS(=O)(=O)c4ccc(NCC5CCOCC5)c([N+](=O)[O-])c4)c(Oc4cnc5[nH]ccc5c4)c3)CC2)=C(c2ccc(Cl)cc2)C1 [Venetoclax] (first compound max 1 µM, 7x7, partner max 1 µM)
combination Emax [1]: 0.148 | combination Emax [2]: 0.0814 | combination Emax [3]: 0.126 | combination Emax [4]: 0.162 | combination Emax [5]: 0.0888 | combination Emax [6]: 0.171 | combination Emax [7]: 0.907 | combination Emax [8]: 0.102 | combination Emax [9]: 0.153 | combination Emax [10]: 0.173 | combination Emax [11]: 0.152 | combination Emax [12]: 0.247 | combination Emax [13]: 0.142 | combination Emax [14]: 0.234 | combination Emax [15]: 0.381 | combination Emax [16]: 0.449 | combination Emax [17]: 0.178 | combination Emax [18]: 0.33 | combination Emax [19]: 0.116 | combination Emax [20]: 0.0979

Cc1cc2ncnn2cc1Nc1ncc2c(n1)n(C1CCOCC1)c(=O)n2C [AZD7648] + CCN(CCO)CCCOc1ccc2c(Nc3cc(CC(=O)Nc4cccc(F)c4)[nH]n3)ncnc2c1 [AZD2811] (first compound max 10 µM, 7x7, partner max 1 µM)
combination Emax [1]: 0.36 | combination Emax [2]: 0.196 | combination Emax [3]: 0.384 | combination Emax [4]: 0.696 | combination Emax [5]: 0.326 | combination Emax [6]: 0.279 | combination Emax [7]: 0.281 | combination Emax [8]: 0.237 | combination Emax [9]: 0.547 | combination Emax [10]: 0.635 | combination Emax [11]: 0.566 | combination Emax [12]: 0.27 | combination Emax [13]: 0.492 | combination Emax [14]: 0.308 | combination Emax [15]: 0.452 | combination Emax [16]: 0.824 | combination Emax [17]: 0.706 | combination Emax [18]: 0.39 | combination Emax [19]: 0.327 | combination Emax [20]: 0.413

Cc1cc2ncnn2cc1Nc1ncc2c(n1)n(C1CCOCC1)c(=O)n2C [AZD7648] + C=CCn1c(=O)c2cnc(Nc3ccc(N4CCN(C)CC4)cc3)nc2n1-c1cccc(C(C)(C)O)n1 [AZD1775] (first compound max 10 µM, partner max 1 µM)
combination Emax [1]: 0.69 | combination Emax [2]: 0.345 | combination Emax [3]: 0.421 | combination Emax [4]: 0.741 | combination Emax [5]: 0.314 | combination Emax [6]: 0.434 | combination Emax [7]: 0.895 | combination Emax [8]: 0.87 | combination Emax [9]: 0.774 | combination Emax [10]: 0.927 | combination Emax [11]: 0.819 | combination Emax [12]: 0.411 | combination Emax [13]: 0.592 | combination Emax [14]: 0.704 | combination Emax [15]: 0.905 | combination Emax [16]: 0.596 | combination Emax [17]: 0.747 | combination Emax [18]: 0.359 | combination Emax [19]: 0.56 | combination Emax [20]: 0.979

Cc1cc2ncnn2cc1Nc1ncc2c(n1)n(C1CCOCC1)c(=O)n2C [AZD7648] + C[C@@H]1COCCN1C2=NC(=NC(=C2)C3(CC3)[S@](=N)(=O)C)C4=C5C=CNC5=NC=C4 [AZD6738] (first compound max 10 µM, 7x7, partner max 10 µM)
combination Emax [1]: 0.389 | combination Emax [2]: 0.311 | combination Emax [3]: 0.423 | combination Emax [4]: 0.657 | combination Emax [5]: 0.526 | combination Emax [6]: 0.649 | combination Emax [7]: 0.91 | combination Emax [8]: 0.956 | combination Emax [9]: 0.779 | combination Emax [10]: 0.949 | combination Emax [11]: 0.66 | combination Emax [12]: 0.543 | combination Emax [13]: 0.687 | combination Emax [14]: 0.694 | combination Emax [15]: 0.325 | combination Emax [16]: 0.633 | combination Emax [17]: 0.508 | combination Emax [18]: 0.481 | combination Emax [19]: 0.579 | combination Emax [20]: 0.849

Cc1cc2ncnn2cc1Nc1ncc2c(n1)n(C1CCOCC1)c(=O)n2C [AZD7648] + CN(C)CCCOc1ccc(-c2ccc3ncc4c(c3c2)n(C2CCOCC2)c(=O)n4C)cn1 [AZD0156] (first compound max 10 µM, 7x7, partner max 1 µM)
combination Emax [1]: 0.36 | combination Emax [2]: 0.211 | combination Emax [3]: 0.398 | combination Emax [4]: 0.335 | combination Emax [5]: 0.235 | combination Emax [6]: 0.195 | combination Emax [7]: 0.204 | combination Emax [8]: 0.173 | combination Emax [9]: 0.508 | combination Emax [10]: 0.31 | combination Emax [11]: 0.584 | combination Emax [12]: 0.159 | combination Emax [13]: 0.269 | combination Emax [14]: 0.17 | combination Emax [15]: 0.353 | combination Emax [16]: 0.515 | combination Emax [17]: 0.407 | combination Emax [18]: 0.224 | combination Emax [19]: 0.169 | combination Emax [20]: 0.393
